Data published in patent US12642792B2, “CA2-IL15 fusion proteins for tunable regulation” (Obsidian Therapeutics, Inc., priority 2019, dated 2026).

Experiments:
[1] = tested on: TIL; assay: Expression of constitutive and regulated mbIL15 in TIL in response to ACZ (flow cytometry); format: cell-based, human; settings: TIL transduced with IL15-293
Description: HEK293T cells were seeded on collagen coated tissue culture plates until 70% confluent. Cells were transfected with pELNS transfer vector carrying constitutive (IL15-292) or regulated (IL15-293) IL15 constructs, as well as packaging plasmids (pRSV.REV, pMDLg/pRRE and OT-BaEVg-002 (SEQ ID NO: 51)) using Lipofectamine 3000 transfection reagent in Opti-MEM media. Media was replaced 6-8 hrs post-transfection with serum-free media. Supernatants containing virus were harvested 24 hr post-transfection, fresh media was added, and supernatants were harvested again at 48 hr post-transfection. Viral supernatants were filtered to remove debris and concentrated by low speed ultracentrifugation. Virus were resuspended, aliquoted and stored at −80 C freezer.
96-well non-coated tissue culture plates were incubated with 35 μg per mL RetroNectin (Takara Bio) in PBS for 2 h at 37° C. or overnight at 4° C. RetroNectin was removed and the plates washed with PBS. […]
mbIL15 expression was determined by flow cytometry using two staining reagents: fluorochrome-conjugated anti-IL15 antibody as well as a recombinant protein comprised of extracellular domain of IL15Ra fused to human IgG1 Fc domain (IL15Ra-Fc). mbIL15+ cell frequency was determined based on co-staining with anti-IL15 and IL15Ra-Fc (identified as the IL15+IL15Ra-Fc+ double positive population).

[2] = tested on: cord blood-derived NK cells; assay: Expression of constitutive and regulated mbIL15 in cord blood NK cells in response to ACZ (FACS); format: cell-based, human; settings: NK cells transduced with IL15-293
Description: Cryopreserved mononuclear cell-fractionated cord blood units were obtained from BioBridge Global. Cord blood was diluted 1:1 with phosphate-buffered saline (PBS) and centrifuged over a cushion of Ficoll-Paque+(Sigma Cat. No. GE17-1440-02). The buffy coat comprising mononuclear cells (MNC) was collected, and the MNC were washed and counted. NK cells were isolated from MNC using EasySep Human NK Cell Isolation Kit (Stemcell Technologies Cat. No. 17955). NK cells were counted and checked for purity by FACS using CD56, CD16, CD3 and viability stain.
One day prior to NK cell isolation as described in Example 8, feeder cells (K562 cells expressing 4-1BBL and mbIL-21) were thawed in complete NK cell media (RPMI with Glutamax (ThermoFisher), 10% heat-inactivated fetal bovine serum (Gibco), 1× Penicillin/Streptomycin, 1 mM Sodium Pyruvate, 1×HEPES, 50 μM 2-Mercaptoethanol). On the day of NK cell isolation, 10×10^6 feeder cells were treated with mitomycin C to inhibit their proliferation and washed to remove excess drug. […] NK cell cultures were expanded by replenishing cell cultures with NK cell media and rhIL2 every two days, and analyzed by FACS for NK cell expansion. […]
mbIL15 expression was determined by flow cytometry using two staining reagents: IL15Ra-Fc and an anti-CD56 antibody. mbIL15+ cell frequency was determined relative to the number of NK cells as determined by the anti-CD56 antibody. […]

[3] = tested on: Human primary T cells; assay: In vitro antigen-independent expansion of T cells expressing constitutive or ACZ-regulated mbIL15 (cell numbers by flow cytometry); format: cell-based; settings: 2 ng/mL exogenous IL15
Description: Human primary T cells capable of expressing constitutive mbIL15 or ACZ-regulated mbIL15 were prepared in accordance with methods described in Example 1 above.
After T cell transduction and expansion, CD3/CD28 beads were removed using magnets, cells were washed twice, resuspended in fresh media and counted. Cells were plated in 12-well plates at 1×10^6 in 2 mL. One well of untransduced cells was cultured in the presence of 2 ng/mL IL15 as a control. T cells expressing regulated constructs were cultured in the absence or presence of acetazolamide (ACZ, 30, 10, 3, 1, 0.3 μM). Cell numbers were monitored by flow cytometry every 3-4 days and cells were cultured for 10-12 days. At each time point 100 μL of cells were collected from wells and analyzed by flow cytometry. Cells were split as needed. Cell cultures were maintained in 12-well plates by taking a portion and adding media in a new plate. Volumes for each well were recorded before and after split to calculate final volume in cell number assessment. IL15 or ACZ were replenished at final concentration of the fresh media added during each split.
T cell numbers were determined by flow cytometry. Empty vector (EV) transduced cell numbers decreased to background levels between 3-5 days in the absence of IL15, and cells expanded 11-fold in the presence of 2 ng/mL exogenous IL15 (FIG. 3A). […]

Row | Molecule | Effect of ACZ on mbIL15 in transduced TIL [1] | Effect of ACZ on mbIL15 in transduced NK [2] | Expansion of empty vector (EV) transduced T cells in the presence of exogenous IL15 [3]
1 | CC(=O)Nc1nnc(S(N)(=O)=O)s1 [ACZ, acetazolamide, reference compound] | induces CA2 DRD-regulated mbIL15 in transduced TIL | induces CA2 DRD-regulated mbIL15 in transduced NK | –
2 | exogenous IL15: exogenous IL15 (2 ng/mL) added to empty vector transduced T cells as control [reference compound] | – | – | 11 -fold
